Experimental data: patent US8455492B2, “Methods for treating retinal diseases” (Allergan, Inc., priority 1995, dated 2013)
Read-outs that look alike come from different tables or passages of the source.

Experiments:
[1] = test system: rat hippocampal neuronal cultures; experiment: Glutamate induced excitotoxic effects on nerve cells (percentage of dead cells, trypan blue); type: cell-based; settings: FIG. 1; day 8; 1 mM glutamate; AGN-191103 0.1 nM, MK-801 10 nM
Protocol: Low-density rat hippocampal neuronal cultures were prepared by the procedure of Goslin and Banker. […] Coverslips (13 mm) were placed in staining racks, rinsed in distilled water (four rinses, 1 min. each) to remove dust and transferred to concentrated HNO3 for 36 hours. Coverslips were rinsed in distilled water (four changes over 3 hours) and sterilized with dry heat (overnight at 225° C.). The coverslips were transferred to 24-well dishes, one coverslip per well. To support the coverslips above the glia during coculturing, paraffin dots were placed on dishes, and UV irradiation (30 min.) was applied before the coverslips were introduced. One mg/mL of poly-L-lysine hydrobromide (PLL) (Sigma) (MW 30,000-70,000) was dissolved in borate buffer (0.1 M, pH 8.5), filtered, sterilized and used to cover each coverslip overnight. The PLL was removed, coverslips were rinsed in distilled water (two washes, 2 hrs. each), plating medium [Eagle's MEM with Earle's salts containing extra glucose (600 mg/L) and 10% horse serum] was added and the dishes were stored in an incubator. […]
After 24 hrs. of incubation, cells were stained with trypan blue. Live and dead neurons were counted from randomly selected culture fields (5 fields from each coverslip). Percentage of dead cells was calculated.

retina = settings: FIG. 5; topical 10 μl one hour before ischemia insult; ERG one week after insult
Protocol: FIG. 5 is a bar graph showing the results of a study to determine the topical efficacy of brimonidine in neuroprotection. The rat acute retinal ischemia model was used to provide the noxious action. Brimonidine was applied topically one hour before ischemia insult, 10 μl to one eye, 10 μl saline to the other eye. The ERG (electroretinogram) was measured one week after the insult.

intraocular pressure [2] = settings: rabbits; topical to the cornea; cited from earlier work
intraocular pressure [3] = settings: cats; topical to the cornea; cited from earlier work
intraocular pressure [4] = settings: monkeys; topical to the cornea; cited from earlier work
rat optic nerve = settings: FIG. 3, optic nerve crush in rats

C[C@]12N[C@H](Cc3ccccc31)c1ccccc12 [MK-801, dizocilpine]
protection of cells from glutamate induced neurotoxicity (percentage of cells killed) [1]: comparable effects in protecting cells from glutamate induced neurotoxicity

Brc1c(NC2=NCCN2)ccc2nccnc12 [brimonidine]
topical neuroprotection (percent of ERG signal recovery) (retina): provides topical neuroprotection in a dose dependent manner | reduction of intraocular pressure (intraocular pressure [2]): effective in reducing intraocular pressure | reduction of intraocular pressure (intraocular pressure [3]): effective in reducing intraocular pressure | reduction of intraocular pressure (intraocular pressure [4]): effective in reducing intraocular pressure

Clc1cccc(Cl)c1N=C1NCCN1 [clonidine]
maximal CAP response relative to AGN 191103 (rat optic nerve): about half the maximal CAP response of AGN 191013 | neuroprotective activity (maximal CAP amplitude) versus vehicle (rat optic nerve; four concentrations): some neuroprotective activity over vehicle alone
